{
  "source": "paper PMC7198601",
  "about": "“Side chain effect in the modulation of αvβ3/α5β1 integrin activity via clickable isoxazoline-RGD-mimetics: development of molecular delivery systems” (Scientific Reports, 2020)",
  "key": {"[1]": {"system": "selected integrins", "assay": "Effect of the aromatised degradation product on the activity of selected integrins", "method": "(§1) LC-MS injections were performed after 30 min from the preparation of the samples and then after each 1.5 hours, following the experiments for 14 h (Fig. 4). […] As a consequence of the spontaneous aromatization of A, also an increasing amount of B was observed after a short period. The aromatised form B was tested to evaluate its effect on the activity of selected integrins but, as consequence of the absence of a crucial pharmacophore, it was not active. This behaviour doesn’t represent a big issue since strong basic conditions are quite unusual in physiological environment. In fact under stress conditions with a large excess of base, the decomposition of 17b to A occurred in few minutes."}, "[2]": {"target": "αvβ3 integrin (Homo sapiens, UniProt P05106+P06756)", "sequence (P06756 31-889 limits assumed)": "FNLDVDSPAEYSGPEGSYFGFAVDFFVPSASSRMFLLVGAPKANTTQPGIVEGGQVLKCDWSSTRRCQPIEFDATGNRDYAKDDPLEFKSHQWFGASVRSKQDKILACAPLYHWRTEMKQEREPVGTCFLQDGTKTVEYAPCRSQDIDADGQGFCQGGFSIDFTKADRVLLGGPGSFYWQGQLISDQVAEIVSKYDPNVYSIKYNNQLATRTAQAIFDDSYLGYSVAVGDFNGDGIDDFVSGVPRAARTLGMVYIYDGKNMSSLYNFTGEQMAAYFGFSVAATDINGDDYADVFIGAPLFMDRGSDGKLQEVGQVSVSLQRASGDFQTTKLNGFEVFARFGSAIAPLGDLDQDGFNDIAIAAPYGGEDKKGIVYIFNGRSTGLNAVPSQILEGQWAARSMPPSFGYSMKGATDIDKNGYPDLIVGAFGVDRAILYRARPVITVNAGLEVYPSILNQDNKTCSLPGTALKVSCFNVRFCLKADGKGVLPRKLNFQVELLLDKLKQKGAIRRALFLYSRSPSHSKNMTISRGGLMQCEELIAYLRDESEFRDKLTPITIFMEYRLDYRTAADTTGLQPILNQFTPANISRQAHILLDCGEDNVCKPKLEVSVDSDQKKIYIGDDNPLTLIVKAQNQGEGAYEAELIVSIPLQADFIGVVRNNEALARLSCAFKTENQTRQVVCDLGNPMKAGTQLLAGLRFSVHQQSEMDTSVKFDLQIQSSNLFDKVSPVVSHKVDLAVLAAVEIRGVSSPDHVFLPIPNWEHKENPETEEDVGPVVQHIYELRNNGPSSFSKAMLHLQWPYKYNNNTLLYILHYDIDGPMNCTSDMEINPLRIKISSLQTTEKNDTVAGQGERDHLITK", "sequence (P06756 891-1048 partner limits assumed)": "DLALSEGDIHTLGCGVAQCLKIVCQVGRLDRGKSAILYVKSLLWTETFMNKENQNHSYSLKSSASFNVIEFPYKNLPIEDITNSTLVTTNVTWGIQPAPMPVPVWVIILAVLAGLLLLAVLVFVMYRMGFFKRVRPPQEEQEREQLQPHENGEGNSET", "sequence (P05106 27-788)": "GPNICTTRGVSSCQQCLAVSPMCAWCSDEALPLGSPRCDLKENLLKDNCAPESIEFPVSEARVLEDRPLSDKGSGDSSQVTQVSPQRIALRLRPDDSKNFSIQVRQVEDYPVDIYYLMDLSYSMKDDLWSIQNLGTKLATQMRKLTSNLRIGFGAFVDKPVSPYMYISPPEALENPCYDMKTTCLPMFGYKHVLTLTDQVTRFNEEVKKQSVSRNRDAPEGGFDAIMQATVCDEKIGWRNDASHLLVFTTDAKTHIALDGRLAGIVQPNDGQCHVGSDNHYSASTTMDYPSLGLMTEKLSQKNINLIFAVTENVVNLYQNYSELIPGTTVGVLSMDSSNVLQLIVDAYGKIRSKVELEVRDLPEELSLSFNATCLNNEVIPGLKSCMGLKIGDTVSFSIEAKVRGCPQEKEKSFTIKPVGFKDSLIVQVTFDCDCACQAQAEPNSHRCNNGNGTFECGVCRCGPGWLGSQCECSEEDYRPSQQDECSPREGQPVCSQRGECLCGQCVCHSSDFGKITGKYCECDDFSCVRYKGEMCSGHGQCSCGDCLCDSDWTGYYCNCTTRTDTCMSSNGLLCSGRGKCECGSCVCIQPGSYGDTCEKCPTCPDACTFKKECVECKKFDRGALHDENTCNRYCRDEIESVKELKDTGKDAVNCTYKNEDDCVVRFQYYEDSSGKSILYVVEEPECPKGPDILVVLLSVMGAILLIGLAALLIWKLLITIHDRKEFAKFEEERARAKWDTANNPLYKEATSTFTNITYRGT", "assay": "Cell adhesion assay: SK-MEL-24 cells to immobilized fibronectin (αvβ3 integrin-mediated)", "quoted_text": "(§8) The ability of the synthesized racemic ligands to inhibit the adhesion of K562 cells (human erythroleukemic cells, expressing α5β1 integrin) or SK-MEL-24 cells (human malignant melanoma cells, expressing αvβ3 integrin) to immobilized fibronectin was evaluated[29]. […] In these experiments, the cells were seeded onto plates coated with fibronectin and allowed to adhere before quantitation of the number of adherent cells, in presence of increasing concentrations of the compounds.\n(§9) SK-MEL-24 (American Tissue Culture Collection, ATCC, Rockville, MD) were routinely grown in minimum essential medium (MEM, Cambrex, Walkersville, MD) supplemented with 10% fetal bovine serum (FBS), nonessential amino acids, and sodium pyruvate. K-562 (ATCC, Rockville, MD) were maintained as a stationary suspension culture in RPMI-1640 and L-glutamine with 10% FBS (Invitrogen (Carlsbad, CA). Cells were kept at 37 °C in a 5% CO2 humidified atmosphere. Forty hours before experiments, K-562 were treated with 25 ng/mL PMA (Sigma-Aldrich SRL, Milan, Italy) to induce differentiation and to increase expression of cell surface antigens[50].\n(§10) Plates (96 wells) (Corning Costar, Celbio, Milan,Italy) were coated by passive adsorption with fibronectin (10 µg/mL) or poly-L-lysine (0.002%) (Sigma-Aldrich SRL) overnight at 4 °C. Cells were counted with a haemocytometer and pre-incubated with different concentrations of each compound or with the vehicle (methanol) for 30 min at room temperature to reach a ligand-receptor equilibrium. Stock solutions (10^–2 M) of the assayed compounds were prepared in phosphate-buffered saline (PBS). […] This product is a chromogenic substrate for β-N-acetylglucosaminidase that is transformed in 4-nitrophenol whose absorbance can be measured at 405 nm. As previously described[51], there is a linear correlation between absorbance and enzymatic activity. Therefore, it is possible to identify the number of adherent cells among treated wells, interpolating the absorbance values of unknowns in a calibration curve. The reaction was blocked by addition of 100 µL of a stopping solution [50 µM glycine and 5 µM EDTA (pH 10.4)], and the plates were read in an EnSpire Multimode Plate Reader (PerkinElmer, Waltham, MA, USA). Experiments were carried out in quadruplicate and repeated at least three times. Data analysis and IC50/EC50 values were calculated using Graph-Pad Prism 5.0 (GraphPad Software, San Diego, CA)."}, "[3]": {"assay": "Stability in bovine serum (LC-MS)", "format": "in vitro ADME", "method": "as §1\n(§2) Figure 4 Stability of 17b in neutral, basic, acidic and physiological conditions and its possible degradation pathway. Conditions: 17b (0.1 mmol) in 300 µl of solvent (water or bovine serum). 5 eq of LiOH·H2O or HCl 1 M were added."}, "[4]": {"system": "α5β1 integrin-mediated phosphorylation of ERK1/2", "assay": "α5β1 integrin-mediated ERK1/2 phosphorylation in K562 cells (Western blot)", "format": "cell-based, human", "conditions": "K562 cells preincubated with compound 10^−7–10^−9 M, then plated on fibronectin", "method": "The mechanism by which components of extracellular matrix generate intracellular signalling through integrins requires indeed an increased phosphorylation of cytoplasmatic second messengers. Phosphorylation of ERK1/2 plays a central role in fibronectin-mediated survival signalling through integrins: in fact, cell adhesion activates ERK1/2 by binding of α5β1 integrins at the cell surface to extracellular matrix proteins such as fibronectin. The experiment was performed by serum-starving K562 cells in RPMI-1640 containing 1% FBS for 16 h; thereafter, they were preincubated with compound 17b, 24 (10^−7–10^−9 M) or the vehicle for 60 minutes and then plated for 60 minutes on fibronectin.\nFigure 2 (a) Cropped blots related to the effect of compounds 17b and 24 on α5β1 integrin-mediated phosphorylation of ERK1/2 in K562 cells. Cells were serum-starved in RPMI-1640 containing 1% FBS for 16 h; then cells were preincubated with different concentrations of the antagonist 17b (10^−7–10^−9 M) or its vehicle for 1 h in suspension and then were allowed to adhere for 1 h on fibronectin (FN). […] Thereafter cells were lysed and lysates were analysed in Western blot using an antibody directed against phosphorylated ERK1/2 (pERK1/2) or total ERK1/2 (totERK1/2). […]\nK562 cells were incubated in RPMI-1640 with 1% FBS for 16 h. […] Digital images were acquired and analyzed following previously reported methods."}, "[5]": {"assay": "Stability in water at neutral, basic and acidic pH (LC-MS)", "format": "physicochemical", "conditions": "for loss of product: water, after several hours", "method": "as §1, §2"}, "[6]": {"target": "T1, α5β1 integrin (Homo sapiens, UniProt P05556+P08648)", "T1 sequence (P08648 42-894 limits assumed)": "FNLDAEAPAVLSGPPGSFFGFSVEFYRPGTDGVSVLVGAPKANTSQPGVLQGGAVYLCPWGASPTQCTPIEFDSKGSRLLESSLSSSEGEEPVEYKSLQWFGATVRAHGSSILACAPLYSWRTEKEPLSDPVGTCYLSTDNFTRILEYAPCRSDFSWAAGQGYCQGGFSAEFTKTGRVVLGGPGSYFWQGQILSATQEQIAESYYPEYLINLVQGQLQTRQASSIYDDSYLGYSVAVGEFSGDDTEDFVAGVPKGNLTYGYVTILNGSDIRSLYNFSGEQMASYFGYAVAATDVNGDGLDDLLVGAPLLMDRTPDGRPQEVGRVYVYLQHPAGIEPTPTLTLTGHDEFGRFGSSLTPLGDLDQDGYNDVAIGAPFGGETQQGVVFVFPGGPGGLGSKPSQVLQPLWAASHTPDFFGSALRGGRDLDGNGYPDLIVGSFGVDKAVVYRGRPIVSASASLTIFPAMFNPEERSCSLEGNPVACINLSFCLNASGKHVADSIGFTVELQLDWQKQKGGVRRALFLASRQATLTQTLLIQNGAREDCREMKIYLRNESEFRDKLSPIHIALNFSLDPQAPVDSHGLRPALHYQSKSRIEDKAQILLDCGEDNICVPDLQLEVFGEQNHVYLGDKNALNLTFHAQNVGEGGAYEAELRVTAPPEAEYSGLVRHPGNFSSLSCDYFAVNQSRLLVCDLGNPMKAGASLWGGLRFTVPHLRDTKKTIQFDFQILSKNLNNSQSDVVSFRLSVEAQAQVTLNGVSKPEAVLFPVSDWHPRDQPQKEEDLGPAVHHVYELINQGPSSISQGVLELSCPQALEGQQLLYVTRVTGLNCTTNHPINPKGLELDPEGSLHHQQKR", "T1 sequence (P08648 895-1049 partner limits assumed)": "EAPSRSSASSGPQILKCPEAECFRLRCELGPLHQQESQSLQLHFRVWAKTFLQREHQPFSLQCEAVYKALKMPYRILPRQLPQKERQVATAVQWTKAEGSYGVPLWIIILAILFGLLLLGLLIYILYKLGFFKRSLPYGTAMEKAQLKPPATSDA", "T1 sequence (P05556 21-798)": "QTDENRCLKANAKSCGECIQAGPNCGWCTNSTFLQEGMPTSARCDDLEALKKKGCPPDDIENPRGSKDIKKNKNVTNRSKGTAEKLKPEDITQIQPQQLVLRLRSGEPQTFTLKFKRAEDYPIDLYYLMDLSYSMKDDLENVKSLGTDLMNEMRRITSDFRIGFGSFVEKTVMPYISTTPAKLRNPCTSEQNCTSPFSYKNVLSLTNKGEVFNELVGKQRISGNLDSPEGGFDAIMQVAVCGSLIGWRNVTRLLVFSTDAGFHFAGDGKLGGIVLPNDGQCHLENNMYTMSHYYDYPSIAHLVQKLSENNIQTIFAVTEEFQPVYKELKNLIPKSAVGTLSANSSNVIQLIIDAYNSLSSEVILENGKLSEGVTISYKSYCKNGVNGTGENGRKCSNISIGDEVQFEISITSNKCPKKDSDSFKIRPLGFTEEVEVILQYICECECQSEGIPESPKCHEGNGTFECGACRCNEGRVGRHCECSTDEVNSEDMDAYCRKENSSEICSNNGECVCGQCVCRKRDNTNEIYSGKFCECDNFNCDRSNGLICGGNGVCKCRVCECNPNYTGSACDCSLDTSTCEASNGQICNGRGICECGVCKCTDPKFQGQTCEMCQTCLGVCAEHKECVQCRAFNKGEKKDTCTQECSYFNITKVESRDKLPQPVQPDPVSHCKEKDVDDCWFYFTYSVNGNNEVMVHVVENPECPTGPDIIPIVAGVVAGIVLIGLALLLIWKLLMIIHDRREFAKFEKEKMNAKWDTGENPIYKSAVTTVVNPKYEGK", "assay": "α5β1 integrin internalization by confocal microscopy in HEK293 + α5-EGFP cells", "format": "cell-based", "conditions": "compound 1 µM pre-incubated before fibronectin 10 µg/mL", "excerpt": "Integrin trafficking is an important mechanism employed by cells to regulate integrin–extracellular matrix interactions, and thus cellular signalling, during processes such as cell migration and invasion. α5β1 integrin is internalized, trafficked to recycling endosomes and then recycled to the plasma membrane[43],[44]. Membrane trafficking pathways influence α5β1’s ability to promote invasion and metastasis[45],[46]. […]\nHEK293 cells (not expressing α5 but endogenously expressing β1 integrin[47],[48] were plated in 6 well plates and at 50–60% confluence were transiently transfected with α5-EGFP plasmid using Lipofectamine2000 transfection reagent (LifeTechnologies). After 48 h from transfection, HEK293 + α5-EGFP cells were assessed to verify integrins expression by flow cytometry (data not shown). α5-EGFP integrin plasmid was a kind gift from Michael Davidson (Addgene plasmid #56423). HEK293 + α5-EGFP cells were treated at 4 °C with fibronectin (10 µg/ml) or the agonist 24 (1 µM) in MEM for 1 hour. Cells exposed to the antagonist 17b (1 µM), before the addition of fibronectin, were pre-incubated with the compound for 20 minutes at 4 °C. […]\n(§3) Specimens were embedded in Mowiol and analyzed using a Nikon C1s confocal laser-scanning microscope, equipped with a Nikon PlanApo 60×, 1.4-NA oil immersion lens. […]"}, "[7]": {"target": "T1, α5β1 integrin", "assay": "Cell adhesion assay: K562 cells to immobilized fibronectin (α5β1 integrin-mediated)", "quoted_text": "as §8, §9, §10"}, "[8]": {"system": "HEK293 cells", "assay": "Confocal microscopy of FITC-conjugate internalization in HEK293 cells not expressing α5", "format": "cell-based, human", "conditions": "HEK293 cells that do not express α5 integrin, 0.1–1 μM", "method": "(§4) In order to visualize the localization of isoxazolines inside the cells and to explore the possibility to use them as shuttles for selective delivery of therapeutic payloads and diagnostics, compound 31 was synthesized conjugating 17b with FITC, as described above. […] In addition, the internalization of compound 31 was concentration-dependent: at a higher concentration (1 μM) it accumulated inside the cells in a greater extent.\n(§5) Figure 5 Confocal microscopy images of HEK293 or HEK293 + α5, HEK293 + αvβ3 and K562 cells treated with compound 31 (Cpd 31). […] In the left column of each panel green (FITC) fluorescence was shown, whereas in right one green and blue (DAPI) signals were merged. […] Scale bar: 30 µm. d) Compound 31 internalization was evaluated according to green fluorescence intensity in the cells and is reported in the graph. […]\nas §3\n(§6) For internalization analysis of ligand 31, the mean fluorescence intensity was related to the background; the relative fluorescence intensity is reported in the graph in Fig. 5."}, "[9]": {"system": "HEK293 + αvβ3 cells", "assay": "Confocal microscopy of FITC-conjugate internalization in HEK293 + αvβ3 cells", "format": "cell-based, human", "conditions": "HEK293 + αvβ3 cells not expressing α5β1, 0.1–1 μM", "method": "(§7) Figure 5 Confocal microscopy images of HEK293 or HEK293 + α5, HEK293 + αvβ3 and K562 cells treated with compound 31 (Cpd 31). Cells were exposed to compound 31 (0.1–1 μM) or its vehicle for 60 minutes at 4 °C and thereafter cells were moved to 37 °C for 15 minutes to promote integrin internalization and fixed as described in Methods. a) Compound 31, conjugated with FITC was able to enter the cells in α5 integrin-dependent manner: it was internalized in HEK293 + α5 but not in HEK293 cells. Right Panels: HEK293 cells not expressing α5 integrin subunit. Left Panels: HEK293 + α5. b) Concentration-dependent internalization of compound 31 was observed also in K562 cancer cells, endogenously expressing α5β1 integrin. […] In the left column of each panel green (FITC) fluorescence was shown, whereas in right one green and blue (DAPI) signals were merged. Nuclei were counterstained with DAPI. Scale bar: 30 µm. d) Compound 31 internalization was evaluated according to green fluorescence intensity in the cells and is reported in the graph. […]\nas §3, §6"}, "[10]": {"system": "HEK293 + α5 cells", "assay": "Confocal microscopy of FITC-conjugate internalization in HEK293 + α5 cells", "format": "cell-based, human", "conditions": "0.1–1 μM", "method": "as §4, §5, §3, §6"}, "[11]": {"system": "K562 cells", "assay": "Confocal microscopy of FITC-conjugate internalization in K562 cells", "format": "cell-based, human", "method": "as §7, §3, §6"}, "[12]": {"conditions": "K562 cell adhesion to fibronectin"}},
  "data": [
    {"smiles": "Cc1onc(CCCc2cn(CCCNC(=O)OC(C)(C)C)nn2)c1C(=O)NCc1ccc(N)cc1", "note": "[B]", "values": [
      {"measurement": "effect on the activity of selected integrins", "setting": "[1]", "result": "not active"}
    ]},
    {"smiles": "CC1=C(C(=O)NCc2ccc(N)cc2)C(CCCc2cn(CCCNC(=O)OC(C)(C)C)nn2)N(C(=O)CC(=O)O)O1", "note": "(stereo not drawn) [Compound 17b]", "values": [
      {"measurement": "IC50", "setting": "[2]", "result": "> 1000", "unit": "µM"},
      {"measurement": "stability in bovine serum", "setting": "[3]", "result": "no significant degradation"},
      {"measurement": "fibronectin-induced ERK1/2 phosphorylation levels", "setting": "[4]", "result": "significant concentration-dependent reduction"},
      {"measurement": "loss of product", "setting": "[5]; acidic treatment (pH=3, HCl)", "result": 5, "unit": "%"},
      {"measurement": "loss of product", "setting": "[5]; neutral conditions (pH=7)", "result": 5, "unit": "%"},
      {"measurement": "decomposition to A", "setting": "[5]; stress conditions with a large excess of base", "result": "few minutes"},
      {"measurement": "effect on fibronectin-induced α5β1 integrin internalization", "setting": "[6]", "result": "prevented integrin internalization"},
      {"measurement": "IC50", "setting": "[7]", "result": "0.0027 ± 0.0004", "unit": "µM"},
      {"measurement": "α5β1 behaviour (agonist/antagonist)", "setting": "[7]; [12]", "result": "antagonist"}
    ]},
    {"smiles": "CC1=C(C(=O)NCc2ccc(N)cc2)C(CCCc2cn(CCCNC(=S)Nc3ccc(-c4c5ccc(=O)cc-5oc5cc(O)ccc45)c(C(=O)O)c3)nn2)N(C(=O)CC(=O)O)O1", "note": "(stereo not drawn) [Compound 31]", "values": [
      {"measurement": "internalization", "setting": "[8]", "result": "not able to enter"},
      {"measurement": "internalization", "setting": "[9]", "result": "not able to be internalized"},
      {"measurement": "IC50", "setting": "[7]", "result": "0.13 ± 0.01", "unit": "µM"},
      {"measurement": "α5β1 behaviour (agonist/antagonist)", "setting": "[7]; [12]", "result": "antagonist"},
      {"measurement": "α5β1 IC50/EC50 (IC50 for antagonists)", "setting": "[7]; K562 cell adhesion to fibronectin, antagonists, also >1000 cells with behaviour not given, mean ± SD", "result": "0.13 ± 0.01", "unit": "µM"},
      {"measurement": "intracellular localization / internalization", "setting": "[10]", "result": "localized in the cell cytoplasm"},
      {"measurement": "internalization", "setting": "[11]; 0.1–1 μM", "result": "internalized in K562 cells in a concentration-dependent way"}
    ]},
    {"smiles": "CC[C@@]1([C@@H]2O[C@@H]([C@H]3O[C@@](O)(CO)[C@H](C)C[C@@H]3C)C[C@@H]2C)CC[C@H]([C@]2(C)CC[C@]3(C[C@H](O)[C@@H](C)[C@@H]([C@@H](C)[C@@H](OC)[C@H](C)C(=O)O)O3)O2)O1", "note": "[monensin, reference compound]", "values": [
      {"measurement": "effect on compound 31 internalization", "setting": "[11]; monensin 2 µM for 2 h", "result": "significantly inhibited"}
    ]}
  ]
}
